Marks after values point to notes of the source that are not given here.
Experiments:
[1] = tested on: New Zealand White rabbits; test: Histological observation of the organs of treated rabbits (Experimental Example 7, Step 5); type: in vivo, rabbit; details: 8 weeks
Text: Tissues of the lung, myocardium, kidney and muscle taken from the rabbits treated with the phenolic acid derivatives (BN30063, BN30064, BN30067) were visually examined for pathological changes using a microscope.

[2] = tested on: New Zealand White rabbits; test: Fatty streak in the main artery of cholesterol-fed rabbits (Experimental Example 7, Step 2); type: in vivo, rabbit; details: 8 weeks; for Proportion of stained region (fatty streak region) per unit area of the artery: 1% cholesterol + RC4 diet, lovastatin 0.003 wt %, BN compounds 0.025 wt %, average ± standard deviation; for Proportion of the fatty streak region compared to the control group: 1% cholesterol diet
Procedure: The rabbits raised in Step 1 were sacrificed and their chests were incised. The incision was performed downward to the diaphragm along the aortic arch and the fat surrounding the main artery was removed. The main artery was incised in the middle along the longitudinal axis from the second aortic intercostal artery anastomoses to the seventh aortic intercostal artery anastomoses and fixed with 10% neutral buffered formalin for 24 hours. Then, the incised main artery was pinned to a dish for staining of fatty streaks according to the method of Esper, E., et al. {J. Lab. Clin. Med., 121, 103-110 (1993)}. The artery was washed with propylene glycol three times for 2 minutes respectively. The artery was stained for 30 minutes with a saturated solution of Oil Red O (ORO, Sigma Co.) dissolved in propylene glycol. Thereafter, the artery was washed with 85% propylene glycol twice for 3 minutes respectively to remove the remaining staining solution and, then the artery was washed with physiological saline once. The artery was photographed and the photograph was traced. The proportion (%) of stained region (fatty streak region) per unit area of the artery was determined with an image analyzer (LEICA, Q-600, Germany). The significant differences between the test groups were tested by student t-test using Microsoft excel (version 7.0) program

[3] = tested on: ACAT; test: ACAT activity in liver microsomes of treated rats (Experimental Example 6, Step 3); type: in vivo, rat; details: liver microsomes of rats fed 6 weeks; for ACAT activity: average; for ACAT activity inhibition: relative to control group
Procedure: 1 g of the liver tissue taken from each sacrificed rat of Step 1 was homogenized in 5 ml of the first homogenization medium {0.1 M KH2PO4(pH 7.4), 0.1 mM EDTA and 10 mM β-mercaptoethanol}. The homogenate was centrifuged at 3,000×g for 15 minutes at 4° C. and the supernatant thus obtained was put into a tube and centrifuged at 15,000×g for 15 minutes at 4° C. to obtain a supernatant. The resulting supernatant was put into a 5 mL ultracentrifuge tube (Beckman) and centrifuged at 100,000×g for 1 hour at 4° C. The supernatant was removed off and pellets thus obtained were suspended in 3 mL of the first homogenization medium and centrifuged at 100,000×g for 1 hour at 4° C. The resulting supernatant was removed off and pellets thus obtained were suspended in 1 ml of the first homogenization medium. The resulting suspension was stored in a deep freezer.
6.67 μl of 1 mg/ml cholesterol solution in acetone was mixed with 6 μl of 10% Triton WR-1339 (Sigma Co.) in acetone. Acetone was removed from the mixture by evaporation under a nitrogen flow. To the resulting mixture, distilled water was added to adjust the concentration of cholesterol to 300 mg/10 ml. 10 μl of the resulting aqueous cholesterol solution was mixed with 10 μl of 1 M KH2PO4 (pH 7.4), 5 μl of 0.6 mM bovine serum albumin (BSA), 10 μl of the microsome solution obtained as above and 55 μl of distilled water (total 90 μl). The mixture was pre-incubated in a water bath at 37° C. for 30 minutes.
10 μl of oleyl-CoA solution […] prepared by mixing radiolabelled oleyl-CoA with oleyl-CoA was added to the pre-incubated mixture and the resulting mixture was incubated in a water bath at 37° C. for 30 minutes. 500 μl of isopropanol:heptane mixture (4:1 (v/v)), 300 μl of heptane and 200 μl of 0.1 M KH2PO4 (pH 7.4) were added to the mixture. The mixture was mixed vigorously using a vortex mixer and then allowed to stand at room temperature for 2 minutes.
200 μl of the resulting supernatant was put in a scintillation bottle and 4 mL of scintillation fluid (Lumac) was added thereto. The mixture was assayed for radioactivity with a scintillation counter. ACAT activity was calculated from the measured radioactivity, which was used to determine the ACAT activity inhibition (%).

[4] = tested on: New Zealand White rabbits; test: Morphological observation of liver tissue of cholesterol-fed rabbits (Experimental Example 7, Step 4)
Procedure: Healthy male New Zealand White rabbits, each weighing about 2.0 to 2.3 kg, were supplied from Yeonam Horticulture and Animal Husbandry College (Korea) and raised under a breeding environment of temperature 20±2° C., relative humidity 55±10%, and photoperiod 12L/12D. The rabbits were divided into 5 groups, which were fed with 5 different diets, i.e., the control group fed with RC4 diet (Oriental Yeast Co., Japan) comprising moisture (7.6%), crude protein (22.8%), crude fat (2.8%), crude ash (8.8%), crude cellulose (14.4%) and soluble nitrogen-free substances (43.7%) plus cholesterol (1%) and four treatment groups further fed with lovastatin or BN30063, BN30064, BN30067 in addition to the feed of the control group. The rabbits were fed for 8 weeks while being allowed free access to the diets and water.
Proportions of cells in the liver acinus containing excessive fat or modified to have irregular arrangement due to a high cholesterol diet were classified into four grades, from 1+ to 4+.

[5] = tested on: New Zealand White rabbits; test: Chemical analysis of blood of cholesterol-fed rabbits (Experimental Example 7, Step 3); details: 8 weeks
Procedure: Healthy male New Zealand White rabbits, each weighing about 2.0 to 2.3 kg, were supplied from Yeonam Horticulture and Animal Husbandry College (Korea) and raised under a breeding environment of temperature 20±2° C., relative humidity 55±10%, and photoperiod 12L/12D. […] The rabbits were fed for 8 weeks while being allowed free access to the diets and water.

[6] = 1% cholesterol diet, lovastatin 1 mg/kg, BN compounds 0.025%, average ± standard deviation

Pathological changes in lung, myocardium, kidney and muscle (microscope) [1]	Grade of abnormal fat content in the liver acinus ([4]; rabbit, in vivo)	Liver tissue morphology ([4]; rabbit, in vivo)	SMILES	Proportion of stained region (fatty streak region) per unit area of the artery [2]	Proportion of the fatty streak region compared to the control group [2]	ACAT activity [3]	ACAT activity inhibition [3]	HDL [5, 6]	TC [5, 6]	HDL compared to the control group [5]	Total cholesterol compared to the control group [5]	Grade of abnormal fat content in the liver acinus ([4]; 1+ (0–25%), 2+ (26–50%), 3+ (51–75), 4+ (76–100%), rabbits, 1% cholesterol diet, 8 weeks, average ± standard deviation)	Liver tissue morphology ([4]; rabbits, 1% cholesterol diet, 8 weeks)	GOT [5, 6]	GPT [5, 6]	GOT and GPT compared among the test groups ([5]; associated with hepatotoxicosis)
no pathogenic abnormality was found	3.70 ± 0.10	not observed any abnormality	CC(C)CC(NC(=O)CCc1ccc(O)c(O)c1)C(=O)O (stereo not shown) [BN30064, 2-[3-(3,4-dihydroxyphenyl)propionylamino]-4-methyl pentanoic acid]	31.2 ± 11.6^b %	significantly lower	152.49 pmol/minute/mg protein	18.07%	85 ± 15 mg/dL	1596 ± 191^b mg/dl	significantly increased value	significantly low	–	–	–	–	–
–	–	–	CC[C@H](C)C(=O)O[C@H]1C[C@@H](C)C=C2C=C[C@H](C)[C@H](CC[C@@H]3C[C@@H](O)CC(=O)O3)[C@H]21 [Lovastatin, reference compound]	30.3 ± 12^b %	significantly lower	166.66 pmol/minute/mg protein	10.46%	70 ± 6 mg/dL	1739 ± 86 mg/dL	–	–	3.83 ± 0.5^b	a grade higher than that of the control group	105 ± 47^b IU/L	47 ± 18 IU/L	highest GOT and GPT values among the test groups
no pathogenic abnormality was found	3.82 ± 0.8	not observed any abnormality	O=C(O)CC(NC(=O)CCc1ccc(O)c(O)c1)C(=O)O (stereo not shown) [BN30067, 2-[3-(3,4-dihydroxyphenyl)propionylamino]-succinic acid]	43.0 ± 13.9^b %	significantly lower	160.01 pmol/minute/mg protein	14.03%	81 ± 14 mg/dL	1710 ± 251 mg/dL	–	–	–	–	–	–	–
no pathogenic abnormality was found	3.71 ± 0.35	not observed any abnormality	COC(=O)C(CO)NC(=O)CCc1ccc(O)c(O)c1 (stereo not shown) [BN30063, 2-[3-(3,4-dihydroxyphenyl)propionylamino]-3-hydroxy propionic acid methyl ester]	44.8 ± 10.5%	significantly lower	186.56 pmol/minute/mg protein	0%	81 ± 16 mg/dL	1643 ± 194 mg/dL	–	–	–	–	–	–	–
